Literature values in patent US11400098B2, “Method of treating microbial infections” (priority 2011, dated 2022).

Tested on: S. epidermidis
Conditions: background statement

O=C(OOC(=O)c1ccccc1)c1ccccc1 [BPO, benzoyl peroxide]
effect on growth of S. epidermidis: strongly suppresses the growth
